Reference: patent US10072026B2, “Crystalline form of 3-((1R,3s,5S)-3-((7-((5-methyl-1H-pyrazol-3-yl)amino)-1,6-naphthyridin-5-yl)amino)-8-azabicyclo[3.2.1]octan-8-yl)propanenitrile” (priority 2015, dated 2018)
Like-named read-outs stand apart in the source and are kept apart here.

What was measured:
[1] = target: JAK2 (Homo sapiens (Human), UniProt O60674); assay: LanthaScreen JAK biochemical assay (JAK2)
[2] = target: JAK1 (Homo sapiens (Human), UniProt P23458); assay: LanthaScreen JAK biochemical assay (JAK1)
[3] = tested on: IL-4 induced STAT6 phosphorylation in THP-1 human monocytic cells; assay: Cellular JAK potency assay, THP-1
[4] = IL-4 induced STAT6 phosphorylation, THP-1 cells
[5] = read-out: JAK 2 (pKi) (converted)
[6] = Homo sapiens, THP-1, read-out: THP-1 IL4 pIC50 (converted)
[7] = read-out: JAK 1 (pKi) (converted)
[8] = THP-1 cells, IL-4 induced STAT6 phosphorylation

Sequence of JAK2 (O60674 whole entry): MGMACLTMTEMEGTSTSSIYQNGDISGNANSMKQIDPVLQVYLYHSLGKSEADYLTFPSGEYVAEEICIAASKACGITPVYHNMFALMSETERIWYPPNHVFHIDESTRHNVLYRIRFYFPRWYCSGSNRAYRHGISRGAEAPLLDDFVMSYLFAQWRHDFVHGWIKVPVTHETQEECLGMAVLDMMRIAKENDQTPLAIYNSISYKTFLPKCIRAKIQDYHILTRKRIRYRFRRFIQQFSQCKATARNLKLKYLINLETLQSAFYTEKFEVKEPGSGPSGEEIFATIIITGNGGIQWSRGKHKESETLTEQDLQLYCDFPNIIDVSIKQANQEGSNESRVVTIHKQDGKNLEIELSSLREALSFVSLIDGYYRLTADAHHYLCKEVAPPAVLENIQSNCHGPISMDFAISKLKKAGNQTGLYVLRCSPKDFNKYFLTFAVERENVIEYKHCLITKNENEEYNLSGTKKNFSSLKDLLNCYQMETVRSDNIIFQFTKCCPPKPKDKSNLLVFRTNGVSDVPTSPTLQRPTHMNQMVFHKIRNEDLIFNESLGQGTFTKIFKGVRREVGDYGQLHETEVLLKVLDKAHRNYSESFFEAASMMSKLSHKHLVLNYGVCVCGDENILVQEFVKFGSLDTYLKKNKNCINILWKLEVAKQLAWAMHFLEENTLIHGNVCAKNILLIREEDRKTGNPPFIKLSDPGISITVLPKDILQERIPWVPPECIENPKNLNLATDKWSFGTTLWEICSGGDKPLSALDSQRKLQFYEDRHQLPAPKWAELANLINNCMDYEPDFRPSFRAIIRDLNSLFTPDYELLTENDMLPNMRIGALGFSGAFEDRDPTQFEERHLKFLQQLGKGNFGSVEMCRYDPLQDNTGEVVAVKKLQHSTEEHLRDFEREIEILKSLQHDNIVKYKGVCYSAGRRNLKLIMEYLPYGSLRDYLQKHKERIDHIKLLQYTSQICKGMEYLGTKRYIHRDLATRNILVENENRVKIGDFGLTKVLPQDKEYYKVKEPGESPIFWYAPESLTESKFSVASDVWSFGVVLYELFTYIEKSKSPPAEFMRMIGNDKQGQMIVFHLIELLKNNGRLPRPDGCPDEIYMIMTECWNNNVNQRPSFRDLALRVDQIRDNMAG
Sequence of JAK1 (P23458 whole entry): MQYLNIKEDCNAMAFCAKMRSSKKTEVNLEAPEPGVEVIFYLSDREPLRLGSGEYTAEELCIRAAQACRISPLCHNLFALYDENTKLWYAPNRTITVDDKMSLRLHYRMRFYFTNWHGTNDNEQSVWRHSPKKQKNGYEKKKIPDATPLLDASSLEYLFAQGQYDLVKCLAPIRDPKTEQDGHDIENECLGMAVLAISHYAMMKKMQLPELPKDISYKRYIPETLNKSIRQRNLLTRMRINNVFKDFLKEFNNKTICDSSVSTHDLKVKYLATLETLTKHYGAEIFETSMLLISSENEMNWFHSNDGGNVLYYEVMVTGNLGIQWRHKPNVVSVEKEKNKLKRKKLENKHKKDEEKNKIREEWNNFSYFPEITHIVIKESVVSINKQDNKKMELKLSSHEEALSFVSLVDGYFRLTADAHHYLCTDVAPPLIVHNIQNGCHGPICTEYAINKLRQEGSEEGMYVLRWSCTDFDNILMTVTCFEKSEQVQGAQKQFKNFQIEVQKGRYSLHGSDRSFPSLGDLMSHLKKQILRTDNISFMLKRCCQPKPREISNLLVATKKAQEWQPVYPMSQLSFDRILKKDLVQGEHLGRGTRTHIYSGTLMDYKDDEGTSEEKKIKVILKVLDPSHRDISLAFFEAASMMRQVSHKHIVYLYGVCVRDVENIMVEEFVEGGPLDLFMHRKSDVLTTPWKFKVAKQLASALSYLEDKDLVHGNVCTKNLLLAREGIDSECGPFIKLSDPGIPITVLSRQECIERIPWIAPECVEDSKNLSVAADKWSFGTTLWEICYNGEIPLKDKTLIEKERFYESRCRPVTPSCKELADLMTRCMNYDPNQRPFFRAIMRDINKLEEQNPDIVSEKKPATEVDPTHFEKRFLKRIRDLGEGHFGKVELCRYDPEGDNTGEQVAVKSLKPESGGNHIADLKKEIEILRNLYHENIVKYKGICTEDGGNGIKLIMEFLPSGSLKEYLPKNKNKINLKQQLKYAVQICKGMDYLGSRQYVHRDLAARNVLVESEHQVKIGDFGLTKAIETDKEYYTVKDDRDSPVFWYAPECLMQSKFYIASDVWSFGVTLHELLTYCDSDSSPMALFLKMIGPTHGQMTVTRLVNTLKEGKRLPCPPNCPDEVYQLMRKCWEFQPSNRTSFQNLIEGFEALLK

| Compound | JAK 2 (pKi) [1] | JAK 1 (pKi) [2] | THP-1 IL4 pIC50 [3, 4] | Ki [1, 5] [nM] | IC50 [3, 6] [nM] | also measured |
| --- | --- | --- | --- | --- | --- | --- |
| Cc1cc(Nc2cc3ncccc3c(N[C@@H]3C[C@H]4CCC[C@@H](C3)N4C[C@H]3CCC(=O)O3)n2)n[nH]1 [Example 1-57] | B (B represents a pKi value between 9 and 10 (Ki between 1 nM and 0.1 nM)) | B (B represents a pKi value between 9 and 10 (Ki between 1 nM and 0.1 nM)) | B (B represents a pEC50 value between 6.7 and 7.5 (EC50 between 200 nM and 32 nM)) | – | – | – |
| Cc1cc(Nc2cc3ncccc3c(N[C@@H]3C[C@H]4CC[C@@H](C3)N4C(=O)C3(C)CCCC3)n2)n[nH]1 [Example 2-10] | – | – | – | 0.1 to 1 | 31.6 to 200 | Ki [2]: 0.1 to 1 nM |
| Cc1cc(Nc2cc3ncccc3c(N[C@@H]3C[C@H]4CC[C@@H](C3)N4C(=O)Cc3ccccc3)n2)n[nH]1 [Example 2-11] | B (B represents a pKi value between 9 and 10 (Ki between 1 nM and 0.1 nM)) | B (B represents a pKi value between 9 and 10 (Ki between 1 nM and 0.1 nM)) | B (B represents a pEC50 value between 6.7 and 7.5 (EC50 between 200 nM and 32 nM)) | – | – | – |
| Cc1cc(Nc2cc3ncccc3c(N[C@@H]3C[C@H]4CC[C@@H](C3)N4C(=O)c3ccccc3)n2)n[nH]1 [Example 2-12] | – | – | – | 0.1 to 1 | 31.6 to 200 | Ki [2, 7]: 0.1 to 1 nM |
| Cc1cc(Nc2cc3ncccc3c(N[C@@H]3C[C@H]4CC[C@@H](C3)N4C(=O)c3ccncc3)n2)n[nH]1 [Example 2-13] | – | – | – | 0.1 to 1 | 31.6 to 200 | Ki [2, 7]: 0.1 to 1 nM |
| Cc1cc(Nc2cc3ncccc3c(N[C@@H]3C[C@H]4CC[C@@H](C3)N4C(=O)c3cccnc3)n2)n[nH]1 [Example 2-14] | – | – | – | 0.1 to 1 | > 200 | Ki [2]: 0.1 to 1 nM |
| CCC(=O)N1[C@@H]2CCC[C@H]1C[C@H](Nc1nc(Nc3cc(C)[nH]n3)cc3ncccc13)C2 [Example 2-15] | B (B represents a pKi value between 9 and 10 (Ki between 1 nM and 0.1 nM)) | B (B represents a pKi value between 9 and 10 (Ki between 1 nM and 0.1 nM)) | A (A represents a pEC50 value≥7.5 (EC50≤32 nM)) | – | – | – |
| CCOC(=O)N1[C@@H]2CC[C@H]1C[C@H](Nc1nc(Nc3cc(C)[nH]n3)cc3ncccc13)C2 [Example 3-1] | – | – | – | 0.1 to 1 | < 31.6 | Ki [2, 7]: 0.1 to 1 nM |
| Cc1cc(Nc2cc3ncccc3c(N[C@@H]3C[C@H]4CC[C@@H](C3)N4C(=O)OC(C)C)n2)n[nH]1 [Example 3-2] | – | – | – | – | < 31.6 | Ki [1]: 0.1 to 1 nM; Ki [2]: 0.1 to 1 nM |
| C=CCOC(=O)N1[C@@H]2CC[C@H]1C[C@H](Nc1nc(Nc3cc(C)[nH]n3)cc3ncccc13)C2 [Example 3-4] | B (B represents a pKi value between 9 and 10 (Ki between 1 nM and 0.1 nM)) | B (B represents a pKi value between 9 and 10 (Ki between 1 nM and 0.1 nM)) | A (A represents a pEC50 value≥7.5 (EC50≤32 nM)) | – | – | – |
| Cc1cc(Nc2cc3ncccc3c(N[C@@H]3C[C@H]4CCC[C@@H](C3)N4C(=O)OCC(C)C)n2)n[nH]1 [Example 3-7] | B (B represents a pKi value between 9 and 10 (Ki between 1 nM and 0.1 nM)) | B (B represents a pKi value between 9 and 10 (Ki between 1 nM and 0.1 nM)) | B (B represents a pEC50 value between 6.7 and 7.5 (EC50 between 200 nM and 32 nM)) | – | – | – |
| C=CCOC(=O)N1[C@@H]2CCC[C@H]1C[C@H](Nc1nc(Nc3cc(C)[nH]n3)cc3ncccc13)C2 [Example 3-8] | B (B represents a pKi value between 9 and 10 (Ki between 1 nM and 0.1 nM)) | B (B represents a pKi value between 9 and 10 (Ki between 1 nM and 0.1 nM)) | A (A represents a pEC50 value≥7.5 (EC50≤32 nM)) | – | – | – |
| COCCOC(=O)N1[C@@H]2CCC[C@H]1C[C@H](Nc1nc(Nc3cc(C)[nH]n3)cc3ncccc13)C2 [Example 3-9] | B (B represents a pKi value between 9 and 10 (Ki between 1 nM and 0.1 nM)) | B (B represents a pKi value between 9 and 10 (Ki between 1 nM and 0.1 nM)) | A (A represents a pEC50 value≥7.5 (EC50≤32 nM)) | – | – | – |
| Cc1cc(Nc2cc3ncccc3c(N[C@@H]3C[C@H]4CC[C@@H](C3)N4S(=O)(=O)C3CCCC3)n2)n[nH]1 [Example 4-5] | – | – | – | – | < 31.6 | Ki [1]: 0.1 to 1 nM; Ki [2, 7]: 0.1 to 1 nM |
| Cc1cc(Nc2cc3ncccc3c(N[C@@H]3C[C@H]4CC[C@@H](C3)N4S(=O)(=O)N3CCC3)n2)n[nH]1 [Example 4-6] | – | – | – | – | < 31.6 | Ki [1]: 0.1 to 1 nM; Ki [2, 7]: 0.1 to 1 nM |
| Cc1cc(Nc2cc3ncccc3c(N[C@@H]3C[C@H]4CC[C@@H](C3)N4S(=O)(=O)C3CNC3)n2)n[nH]1 [Example 4-9] | – | – | – | 0.1 to 1 | > 200 | Ki [2]: 0.1 to 1 nM |

| Compound | JAK 2 (pKi) [1] | JAK 1 (pKi) [2] | THP-1 IL4 pIC50 [3, 4] | Ki [1, 5] [nM] | IC50 [3, 6] [nM] | also measured |
| --- | --- | --- | --- | --- | --- | --- |
| Cc1cc(Nc2cc3ncccc3c(N[C@@H]3C[C@H]4CCC[C@@H](C3)N4S(=O)(=O)Cc3ccccc3)n2)n[nH]1 [Example 4-24] | B (B represents a pKi value between 9 and 10 (Ki between 1 nM and 0.1 nM)) | B (B represents a pKi value between 9 and 10 (Ki between 1 nM and 0.1 nM)) | B (B represents a pEC50 value between 6.7 and 7.5 (EC50 between 200 nM and 32 nM)) | – | – | – |
| Cc1ccc(S(=O)(=O)N2[C@@H]3CCC[C@H]2C[C@H](Nc2nc(Nc4cc(C)[nH]n4)cc4ncccc24)C3)cn1 [Example 4-25] | B (B represents a pKi value between 9 and 10 (Ki between 1 nM and 0.1 nM)) | B (B represents a pKi value between 9 and 10 (Ki between 1 nM and 0.1 nM)) | A (A represents a pEC50 value≥7.5 (EC50≤32 nM)) | – | – | – |
| Cc1cc(Nc2cc3nc(CN4CCC(F)(F)CC4)ccc3c(N[C@@H]3C[C@H]4CC[C@@H](C3)N4S(=O)(=O)c3cncc(F)c3)n2)n[nH]1 [Example 5-31] | – | – | – | 0.1 to 1 | 31.6 to 200 | Ki [2]: 0.1 to 1 nM |
| Cc1cc(Nc2cc3nc(CN4CCN(C)CC4)ccc3c(N[C@@H]3C[C@H]4CC[C@@H](C3)N4S(=O)(=O)c3cncc(F)c3)n2)n[nH]1 [Example 5-40] | – | – | – | 0.1 to 1 | 31.6 to 200 | Ki [2, 7]: 0.1 to 1 nM |
| Cc1cc(Nc2cc3nc(CS(C)(=O)=O)ccc3c(N[C@@H]3C[C@H]4CC[C@@H](C3)N4CCCF)n2)n[nH]1 [Example 5-42] | B (B represents a pKi value between 9 and 10 (Ki between 1 nM and 0.1 nM)) | B (B represents a pKi value between 9 and 10 (Ki between 1 nM and 0.1 nM)) | C (C represents a pEC50 value<6.7 (EC50>200 nM)) | – | – | – |
| COc1cnc2cc(Nc3cc(C)[nH]n3)nc(N[C@@H]3C[C@H]4CC[C@@H](C3)N4CCCC#N)c2c1 [Example 6-12] | B (B represents a pKi value between 9 and 10 (Ki between 1 nM and 0.1 nM)) | B (B represents a pKi value between 9 and 10 (Ki between 1 nM and 0.1 nM)) | – | – | – | THP-1 IL4 pIC50 [3, 8]: B (B represents a pEC50 value between 6.7 and 7.5 (EC50 between 200 nM and 32 nM)) |
| COC(=O)c1cnc2cc(Nc3cc(C)[nH]n3)nc(N[C@@H]3C[C@H]4CC[C@@H](C3)N4CCC#N)c2c1 [Example 6-32] | A (A represents a pKi value≥10 (Ki≤0.1 nM)) | A (A represents a pKi value≥10 (Ki≤0.1 nM)) | – | – | – | THP-1 IL4 pIC50 [3, 8]: A (A represents a pEC50 value≥7.5 (EC50≤32 nM)) |
| CCC(=O)N1[C@@H]2CC[C@H]1C[C@H](Nc1nc(Nc3cc(C)[nH]n3)cc3ncc(C(=O)OC)cc13)C2 [Example 6-36] | – | – | – | 0.1 to 1 | 31.6 to 200 | Ki [2, 7]: 0.1 to 1 nM |
| C=CCOC(=O)N1[C@@H]2CC[C@H]1C[C@H](Nc1nc(Nc3cc(C)[nH]n3)cc3ncc(C(=O)OC)cc13)C2 [Example 6-40] | B (B represents a pKi value between 9 and 10 (Ki between 1 nM and 0.1 nM)) | B (B represents a pKi value between 9 and 10 (Ki between 1 nM and 0.1 nM)) | – | – | – | THP-1 IL4 pIC50 [3, 8]: A (A represents a pEC50 value≥7.5 (EC50≤32 nM)) |
| COC(=O)c1cnc2cc(Nc3cc(C)[nH]n3)nc(N[C@@H]3C[C@H]4CC[C@@H](C3)N4CCF)c2c1 [Example 6-43] | B (B represents a pKi value between 9 and 10 (Ki between 1 nM and 0.1 nM)) | B (B represents a pKi value between 9 and 10 (Ki between 1 nM and 0.1 nM)) | – | – | – | THP-1 IL4 pIC50 [3, 8]: B (B represents a pEC50 value between 6.7 and 7.5 (EC50 between 200 nM and 32 nM)) |
| COC(=O)c1cnc2cc(Nc3cc(C)[nH]n3)nc(N[C@@H]3C[C@H]4CC[C@@H](C3)N4CCC(F)(F)F)c2c1 [Example 6-45] | B (B represents a pKi value between 9 and 10 (Ki between 1 nM and 0.1 nM)) | B (B represents a pKi value between 9 and 10 (Ki between 1 nM and 0.1 nM)) | – | – | – | THP-1 IL4 pIC50 [3, 8]: B (B represents a pEC50 value between 6.7 and 7.5 (EC50 between 200 nM and 32 nM)) |
| COC(=O)c1cnc2cc(Nc3cc(C)[nH]n3)nc(N[C@@H]3C[C@H]4CC[C@@H](C3)N4C[C@H]3CCC(=O)O3)c2c1 [Example 6-46] | B (B represents a pKi value between 9 and 10 (Ki between 1 nM and 0.1 nM)) | B (B represents a pKi value between 9 and 10 (Ki between 1 nM and 0.1 nM)) | – | – | – | THP-1 IL4 pIC50 [3, 8]: C (C represents a pEC50 value<6.7 (EC50>200 nM)) |
| Cc1cc(Nc2cc3ncc(S(C)(=O)=O)cc3c(N[C@@H]3C[C@H]4CC[C@@H](C3)N4CCC#N)n2)n[nH]1 [Example 6-50] | A (A represents a pKi value≥10 (Ki≤0.1 nM)) | A (A represents a pKi value≥10 (Ki≤0.1 nM)) | – | – | – | THP-1 IL4 pIC50 [3, 8]: C (C represents a pEC50 value<6.7 (EC50>200 nM)) |
| Cc1cc(Nc2cc3ncc(S(C)(=O)=O)cc3c(N[C@@H]3C[C@H]4CC[C@@H](C3)N4C(=O)C(F)F)n2)n[nH]1 [Example 6-52] | – | – | – | 0.1 to 1 | > 200 | Ki [2]: 0.1 to 1 nM |
| Cc1cc(Nc2cc3ncc(S(C)(=O)=O)cc3c(N[C@@H]3C[C@H]4CC[C@@H](C3)N4CCF)n2)n[nH]1 [Example 6-54] | B (B represents a pKi value between 9 and 10 (Ki between 1 nM and 0.1 nM)) | B (B represents a pKi value between 9 and 10 (Ki between 1 nM and 0.1 nM)) | – | – | – | THP-1 IL4 pIC50 [3, 8]: C (C represents a pEC50 value<6.7 (EC50>200 nM)) |
